Here are results for two compounds from patent US10092622B2 (M[…] University Research and Technology Corporation, priority 2009, dated 2018).

Entries after “also recorded” stand apart in the source; their conditions may differ. Read-outs that look alike come from different tables or passages of the source. Numbered stars: 1 amine (or outer) side, 2 acyl side, 3 side chain; on linkers, the order of the positions; unused ones are H or OH. Bridge positions count the residues as written; N and C are the ends. Square brackets hold non-standard residues; d marks the D form. Peptide text beside a SMILES is read from it. * marks the point of attachment. hTyr(3S-OH,4S-OH,3'-OSO3H) = N[C@H](C(=O)O)[C@H](O)[C@@H](O)c1ccc(O)c(OS(=O)(=O)O)c1; Orn(4R-OH,5R-OH) = O=C([C@H](C[C@@H](O)[C@@H](O)N[*:3])N[*:1])[*:2]; Pro(3S-OH,4S-Me) = C[C@H]1CN[C@H](C(=O)O)[C@H]1O; X1 = CCCCCOc1ccc(-c2cc(-c3ccc(C(=O)*)cc3)no2)cc1; Gln(3R-OH) = NC(=O)C[C@@H](O)[C@H](N)C(=O)O; Hyp = O=C(O)[C@@H]1C[C@@H](O)CN1

For test [1], the system named is A. fumigatus. As to conditions: cited from earlier work.
The subject of test [2] is Geotrichum candidum. The experiment in a line: Light microscopy of arthrospores. As to conditions: G. candidum; 4 μg/mL for 48 hours; versus untreated. In kind it is cell-based. The procedure:
(§1) Microscopy. […] For each of the fungi, the hyphae or arthrospores with an observed MIC50 at 48 hours growing next to the MIC well were used for preparation of light microscopy and transmission electron microscopy (TEM) slides. For light microscopy, lactophenol cotton blue solution (Sigma) was used as a positive stain and mounting medium for the slide. For TEM, the G. candidum samples were fixed at 4° C. with 2.5% glutaraldehyde in 0.1 M phosphate buffer (pH 7.2). After being rinsed with the buffer, specimens were post-fixed with 2% osmium tetroxide in the phosphate buffer. The specimens washed with the phosphate butler were dehydrated in graded ethanol serials (50-100%), and then embedded in Spurr's resin. Thin sections generated with a Reichert-Jung Ultracut E Ultramicrotome (60-90 nm) were double stained with uranyl acetate and lead citrate as described previously. The grids were observed under a transmission electron microscope Jeol JEM-100CX11 (Joel Ltd., Tokyo, Japan). Images were taken at magnifications between 5,000 and 8,000.

Test [3] deals with Geotrichum candidum. The experiment in a line: Transmission electron microscopy of arthrospores. In kind it is cell-based. As to conditions: G. candidum; subinhibitory 4 μg/mL for 48 hours; TEM; versus untreated. The protocol:
as §1

Test [4] concerns Rhizoctonia solani. The test is described as follows: Light microscopy of hyphae grown at sub-inhibitory concentration. In kind it is cell-based. The conditions noted are these: R. solani; subinhibitory concentration 0.5 μg/mL; versus control. The protocol: as §1
Test [5] deals with Aspergillus niger. The test is described as follows: Antifungal susceptibility testing, agar micro-dilution. In kind it is cell-based. As to conditions: A. niger; 48 hours. From the text: (§2) Microbial organisms. Fungal strains were obtained from collections at Mississippi State University's Veterinary Medical Research and Diagnostic Laboratory System and Entomology and Plant Pathology Department or were purchased from the American Type Culture Collection (Manassas, Va.). Fungal isolates used in this study were Alternaria alternata, Aspergillus fumigatus, Aspergillus niger; Fusarium oxysporum f. sp. lycopersici ATCC9848, Geotrichum candidum F-260, Macrophomina phaseolina 61, Microsporum gypseum, Penicillium sp., Rhizoctonia solani MSCOT-I, and Trichophyton mentagrophytes. In addition, two Pythium species were tested: Pythium spinosum 472-04 and Pythium ultimum 671-04.
(§3) Antifungal susceptibility testing. Minimum inhibitory concentrations were determined by agar micro-dilution testing. […] One (1) mL of Sabouraud dextrose agar Difco™ (BD Diagnostics, Franklin Lakes, N.J.) was added to each well. Once the agar solidified, the plates were stored inverted at 4° C. until used. Fungal cultures were grown on 100×15 mm Sabouraud dextrose agar plates (Thermo Fisher Scientific Remel Products, Lenexa, Kans.) at 22° C. for 7 days. A circular punch, containing a 1 cm in diameter plug of the fungi from the agar plate, was made from an area of the plate having a confluent growth of the fungi. The plug was place in 3 mL of PBS and ground with approximately 30 strokes of a Ten-brock homogenizer. Five (5) μL of the supernatant was placed in the center of each well and allowed to dry before incubating the microtiter plates at 22° C. Minimum inhibitory concentrations were measured at 48 hours for each species, except for Trichophyton mentagrophytes, which was measured at 72 hours. MICS were determined as the lowest concentration that inhibited visible fungal growth.

In test [6] the test system is Aspergillus fumigatus. The description is as above. In kind it is cell-based. The conditions noted are these: A. fumigatus; 48 hours.
Source text: as §2, §3

Test [7] deals with Macrophomina phaseolina 61. The test is described as above. In kind it is cell-based. As to conditions: 48 hours.
Source text: as §2, §3

Test [8] concerns Pythium spinosum 472-04. The description is as above. In kind it is cell-based. As to conditions: P. spinosum; 48 hours.
Source text: as §2, §3

Test [9] has as its system Geotrichum candidum F-260. The test is described as above. In kind it is cell-based. As to conditions: G. candidum; 48 hours.
Source text: as §2, §3

Test [10] deals with Pythium ultimum 671-04. The description is as above. In kind it is cell-based. The conditions noted are these: P. ultimum; 48 hours.
Source text: as §2, §3

The test system of test [11] is Alternaria alternata. Described as above. In kind it is cell-based. As to conditions: 48 hours.
Source text: as §2, §3

Test [12] concerns Trichophyton mentagrophytes. The test is described as above. In kind it is cell-based. As to conditions: 72 hours.
Source text: as §2, §3

The test system of test [13] is Fusarium oxysporum f. sp. lycopersici ATCC9848. The test is described as above. In kind it is cell-based. The conditions noted are these: 48 hours.
Source text: as §2, §3

Test [14] concerns Penicillium sp. The description is as above. In kind it is cell-based. The conditions noted are these: 48 hours.
Source text: as §2, §3

For test [15], the system named is Rhizoctonia solani MSCOT-I. The test is described as above. In kind it is cell-based. The conditions noted are these: R. solani.
Source text: as §2, §3

For test [16], the system named is Microsporum gypseum. Described as above. In kind it is cell-based. As to conditions: 48 hours.
Source text: as §2, §3

Take `CCCCCOc1ccc(-c2cc(-c3ccc(C(=O)N[C@H]4C[C@@H](O)[C@@H](O)NC(=O)[C@@H]5[C@@H](O)[C@@H](C)CN5C(=O)[C@H]([C@H](O)CC(N)=O)NC(=O)[C@H]([C@H](O)[C@@H](O)c5ccc(O)c(OS(=O)(=O)O)c5)NC(=O)[C@@H]5C[C@@H](O)CN5C(=O)[C@H]([C@@H](C)O)NC4=O)cc3)no2)cc1` [micafungin] (X1-[Orn(4R-OH,5R-OH)]T[Hyp][hTyr(3S-OH,4S-OH,3'-OSO3H)][Gln(3R-OH)][Pro(3S-OH,4S-Me)]; lactam 1-C): the hyphal morphology entry in test [1] (inhibitory concentrations) was “hyphal burst”; in test [1] (sub-inhibitory concentrations), “undulated membranes and deformed hyphae tips”.

As to occidiofungin, the arthrospore/cell morphology result in [2] was “significant swelling of the cells; also recorded: amorphous shapes due to cellular swelling”. For the same compound, the cell wall thickness result in test [3] is on record as “drastically reduced; also recorded: dramatic decrease in cell wall thickness”. Moreover, the hyphal morphology entry in test [4] is “significant hyphal morphological changes”. The MIC (usually the lowest concentration that inhibits growth of the organism) in test [5] was found to be 4 µg/mL; in test [6], 8 µg/mL; in test [7], 2 µg/mL; in test [8], 1 µg/mL; in test [9] it was 8 µg/mL; in [10], 2 µg/mL. The MIC in test [11] is 8 µg/mL; in test [12] it was 4 µg/mL; in test [13] it was over 32 µg/mL; in [14] it was 32 µg/mL; in test [16] it was 4 µg/mL. The “concentration with remarkable growth inhibition (MIC50)” value in test [9] was found to be 4 µg/mL. Moreover, in [13], the “concentration with significant growth inhibition” value is 16 µg/mL. Further, in [15] (0.5 μg/mL occidiofungin), the reduction in growth was over 50%. In addition, the “concentration with significant growth inhibition (MIC50, >50% growth inhibition)” value in test [15] (48 hours) came out at 0.5 µg/mL.
